“Also recorded” adds a separate entry of the source.

This note sets out measurements from patent US20250152580A1, “METHODS FOR TREATING IMMUNE DISEASES” (Ascentage Pharma (Suzhou) co., Ltd., priority 2022, published 2025).

Assay [1] concerns CD4+CD45RBhigh T transfer IBD model. In words: CD4+CD45RBhigh T transfer inflammatory bowel disease (IBD) model in CB17 SCID mice. The format is in vivo. From the text: 1. Experimental Protocol for CD4^+CD45RB^high T Transfer Inflammatory Bowel Disease (IBD) Model in CB17 SCID Mice.
Balb/c mice and CB17 SCID were purchased from Zhejiang Vital River Laboratory Animal Technology Co., Ltd. (Zhejiang, China). Animals were housed and handled in a temperature-controlled environment with a 12-h light/12-h dark cycle. A total of 50 CB17 SCID mice were assigned to 5 groups by randomization based on body weight.
CD4^+ T cells were isolated from the spleens of Balb/c mice using negative magnetic bead separation kit (Miltenyi Biotec) according to the manufacturers' instructions. The CD4^+CD45RB^high T and CD4^+CD45RB^low T cells were selected by flow cytometry and used for model construction. The isolated CD4^+CD45RB^high T cells were intraperitoneally injected into 40 recipient CB17 SCID mice with 5×10^5 cells per animal. Ten mice in Group 1 (G1) were intraperitoneally injected with 5×10^5 CD4^+CD45RB^low T cells as negative control group.
40 recipient CB17 SCID mice injected with CD4^+CD45RB^high T cells were assigned to four groups (n=10 for each group): G2, vehicle control (po, qd, from day 0 to day 42); G3, 30 mg/kg Cpd. 4 (po, qd, from day 0 to day 42); G4, 30 mg/kg Cpd. 4 (po, qd, from day 14 to day 42); G5, 100 mg/kg Cpd. 4 (po, qd, from day 14 to day 42); G6, positive control, anti-mTNF-α 25 mg/kg (ip, Q3D, from day 14 to day 42).
Clinical signs of IBD were assessed every 3 day based on the scores of disease activity index (DAI) which was evaluated from two parameters using a scoring system from 0 to 4: stool consistency (0, normal stool; 1, soft but still formed stool; 2, soft and not formed stool; 3, very soft and wet stool; 4, watery diarrhea) and body weight loss (0, no body weight loos; 1, 1-5% body weight loss; 2, 6-10% body weight loss; 3, 11-20% body weight loss; 4, >20% body weight loss).
At the end of experiment, the animals were euthanized, dissected and the entire colon was quickly removed and gently cleared of feces.
The entire colon was weighed, and the total length was measured. […] Cpd.
The colons were Swiss-rolled and fixed with neutralized PFA followed by H&E staining. After that, the pathologists from WuXi clinical pathological analysis platform, who were blinded to animal ID, reviewed the H&E staining and scored. […]
At the end of the study (day 42), all the animals were sacrificed by CO2, and the colon tissues were collected and fixed in 10% formalin for pathological analysis (H&E and LFB staining). The histopathological score was evaluated microscopically in a blinded manner.

In assay [2] the test system is IL-23 induced psoriasis model. In words: IL-23 induced psoriasis model in C57BL/6 mice. In kind it is in vivo. The conditions noted are these: Cpd. 4 30 mg/kg po qd day 1-14, compared with Vehicle (0.44 mm day 14). The text has this:
IL-23 stimulates and promotes differentiation of Th17 cells. IL-23 is a heterodimeric cytokine with two subunits. It drives the Th17 response by its binding and signaling through its receptor subunits. When the IL-23R is activated, it promotes the development of Th17 cells and the resulting production of cytokines such as IL-17A, IL-17F, and IL-22, all which are involved in mediating psoriasiform changes.
C57BL/6 mice (7-8 weeks old) were obtained from Vital River Laboratory Animal Technology Co., Ltd. Animals were housed and handled in a temperature-controlled environment with a 12-h light/12-h dark cycle. A total of 40 mice were assigned to 4 groups by randomization based on body weight.
The first day of IL-23 injection is considered as Day 1. Intradermal injection of 20 μL PBS containing 500 ng recombinant mouse IL-23 into the right ear of anesthetized mice using a 30-gauge needle every other day for 14 days (Day 1, Day 3, Day 5, Day 7, Day 9, Day 11, Day 13), 7 times in total. The G1 normal control group intradermal injected with 20 μL PBS.
Mice in Group 1 and Group 2 were treated with vehicle for 14 days (po, qd, from day 1 to day 14). Mice in Group 3 were treated with 30 mg/kg Cpd. 4 for 14 days (po, qd, from day 1 to day 14). […]
Ear thickness of mice was measured in Day 1, 3, 5, 7, 9, 11, 13 and Day 14. […]

On to `O=C(NS(=O)(=O)c1ccc(NC[C@H]2COCCO2)c([N+](=O)[O-])c1)c1ccc(N2CCN(CC3=C(c4ccc(Cl)cc4)CC4(CCC4)CC3)CC2)cc1Oc1cnc2[nH]ccc2c1` [Cpd. 4, (S)-N-((4-(((1,4-dioxan-2-yl)methyl)amino)-3-nitrophenyl)sulfonyl)-2-((1H-pyrrolo[2,3-b]pyridin-5-yl)oxy)-4-(4-((6-(4-chlorophenyl)spiro[3.5]non-6-en-7-yl)methyl)piperazin-1-yl)benzamide], for which, in assay [1] (Cpd. 4 po qd: G3 30 mg/kg day 0-42, G4 30 mg/kg day 14-42, G5 100 mg/kg day 14-42, anti-mTNF-α 25 mg/kg ip Q3D day 14-42, compared with Vehicle), the “disease activity index (DAI), clinical score of IBD” value was “significantly reducing the clinical score; also recorded: significantly reduced”. For the same compound, the “pathological score (colon, H&E)” value in assay [1] (day 42, all Cpd. 4 groups, compared with Vehicle) is on record as “significantly reduced; also recorded: significantly decreased”. In addition, in assay [1] (end of experiment, Cpd. 4 all treatment groups (G3, G4, G5), anti-mTNF-α 25 mg/kg ip Q3D, vehicle 439.1 mg), the colon weight result is reported as “significantly decreased”. In addition, in assay [1] (end of experiment, Cpd. 4 in G3 (30 mg/kg day 0-42) and G5 (100 mg/kg day 14-42), anti-mTNF-α 25 mg/kg ip Q3D, vehicle 7.72 cm), the colon length result is on record as “significantly increased”. For the same compound, in assay [2], the ear thickness result was “significantly reducing the ear thickness; also recorded: significantly reduced”.
